Results: publication PMC4139006 (Pediatric blood & cancer, 2013)
Where two headings read alike, the source gives them in different places.

Legend:
clinical = conditions: human, in vivo, po
[1] = human, in vivo
Phase I dose escalation = format: in vivo, children; conditions: oral, days 1–5 every 28 days, VOR about one hour before TEM
medulloblastoma/PNETs = conditions: of 25 evaluable patients with medulloblastoma/PNETs; cited from earlier work
low-grade glioma = conditions: single-agent temozolomide, cited from earlier work
[2] = given continuously as a single daily dose; pediatric; cited from earlier work
[3] = systemically administered; cited from earlier work

| SMILES | half-life (clinical; 230 mg/m2, Half-life) | AUC(0-inf) (clinical; 300 mg/m2, AUC0-∞) | Cmax (clinical; 300 mg/m2, Cmax) | half-life (clinical; 300 mg/m2, Half-life) | Cmax ([1]; po, 300 mg/m2) | half-life ([1]; po, 300 mg/m2) | pediatric MTD and recommended phase II dosing for the combination of VOR and TEM (Phase I dose escalation) | also measured |
| --- | --- | --- | --- | --- | --- | --- | --- | --- |
| O=C(O)CCC(=O)Nc1ccccc1 [4-anilino-4-oxobutanoic acid, 4-anilino-4-oxobutanoic acid] | 10.4 h | 7490 ng·h/mL | 750 ng/mL | 9.18 h | 814 (588 – 832) ng/ml | 9.19 (6.49 – 11.6) hrs |  | AUC(0-inf) (clinical; 230 mg/m2, AUC0-∞): 6900 ng·h/mL; Cmax (clinical; 230 mg/m2, Cmax): 490 ng/mL; Tmax (clinical; 230 mg/m2, Tmax): 3 h; Tmax (clinical; 300 mg/m2, Tmax): 4 h; AUC0-∞ ([1]; po, 300 mg/m2): 9590 (7150 – 16600) ng/ml*hr; Tmax ([1]; po, 300 mg/m2): 2.00 (0.88 – 6.00) hrs |
| Cn1nnc2c(C(N)=O)ncn2c1=O [TEM, Temozolomide] |  |  |  |  |  |  | 150 mg/m^2/day | complete or partial responses, patients (medulloblastoma/PNETs): 4; patients having prolonged stable disease (low-grade glioma; adults): 30%; response rates (low-grade glioma; adults): 50–60%; median progression-free survival (PFS) (low-grade glioma): 22–28 months |
| O=C(CCCCCCC(=O)Nc1ccccc1)NO [VOR, suberoylanilide hydroxamic acid] | 2.61 h | 1790 ng·h/mL | 422 ng/mL | 2.62 h | 578 (200 – 821) ng/ml | 2.80 (2.23 – 5.90) hrs | 300 mg/m^2/day | MTD of single-agent oral VOR [2]: 230 mg/m^2/day; time to maximum concentration [1]: 2 h; Cmax ([1]; po, 230 mg/m2): 390 (221 – 655) ng/ml; blood brain barrier crossing [3]: crosses the blood brain barrier |
